# What was measured:
# [1] = target: T1, human Y1 receptor (Homo sapiens, UniProt P25929); experiment: ^125I-PYY binding to membranes, cloned human Y1 receptor; settings: read-out: Binding Affinity Ki vs. ^125I-PYY, Human Receptor Y1; Table 14; stably transfected 293 cells (compound 1 also COS-7)
# T1 construct: expressed in transfected cells; host or cells: COS-7 (transient)
# T1 sequence (P25929 1-384): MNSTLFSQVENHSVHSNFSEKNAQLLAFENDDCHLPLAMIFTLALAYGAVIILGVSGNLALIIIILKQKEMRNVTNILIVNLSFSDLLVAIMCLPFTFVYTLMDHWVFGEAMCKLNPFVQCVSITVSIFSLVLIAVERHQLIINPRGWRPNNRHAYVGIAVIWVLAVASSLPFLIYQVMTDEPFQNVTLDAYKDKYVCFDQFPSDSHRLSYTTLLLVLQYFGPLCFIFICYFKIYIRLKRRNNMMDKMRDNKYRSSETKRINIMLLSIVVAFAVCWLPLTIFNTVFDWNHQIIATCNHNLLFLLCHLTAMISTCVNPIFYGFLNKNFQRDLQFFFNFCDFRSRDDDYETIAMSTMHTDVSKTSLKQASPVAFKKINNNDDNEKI
# [2] = target: T2, human Y5 receptor (Homo sapiens, UniProt Q15761); experiment: Radioligand binding to membranes of cells expressing cloned human Y5 receptor; set-up: Ki Values, Human Y5; apparent Kd; pKd; The isolated clone (CG-19) turned out to contain a full length cDNA; The longest open reading frame encodes a 455 amino acid protein; settings: read-out: Binding Affinity Ki vs. ^125I-PYY, Human Receptor Y5; Table 14; stably transfected LM(tk-) cells
# T2 sequence (Q15761 1-445): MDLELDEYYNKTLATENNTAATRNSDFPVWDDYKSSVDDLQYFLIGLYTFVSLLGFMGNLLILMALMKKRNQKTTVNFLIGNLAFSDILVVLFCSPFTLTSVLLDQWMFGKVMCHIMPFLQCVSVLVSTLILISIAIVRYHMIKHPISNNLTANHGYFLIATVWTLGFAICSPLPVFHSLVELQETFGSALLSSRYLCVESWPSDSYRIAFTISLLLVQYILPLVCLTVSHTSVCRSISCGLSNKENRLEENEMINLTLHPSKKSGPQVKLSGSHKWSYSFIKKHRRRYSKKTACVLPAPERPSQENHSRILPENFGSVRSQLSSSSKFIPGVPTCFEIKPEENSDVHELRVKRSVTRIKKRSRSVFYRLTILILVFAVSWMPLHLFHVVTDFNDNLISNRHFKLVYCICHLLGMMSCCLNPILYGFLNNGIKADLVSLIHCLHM
# [3] = target: T3, 5HT2 (Homo sapiens, UniProt P28223); experiment: Binding at cloned human 5HT2 receptor
# T3 construct: expressed in transfected cells; host or cells: COS-7 (DEAE-dextran); the same paragraph also names the deposited cell line L-NGC-5HT2 (ATCC CRL 10287)
# Protocol: Human 5HT2 Receptor: The coding sequence of the human 5HT2 receptor was obtained from a human brain cortex cDNA library, and cloned into the cloning site of pcEXV-3 eukaryotic expression vector. […] Nonspecific binding was defined by the addition of 10 μM mianserin.
# [4] = target: T4, α2a (Homo sapiens, UniProt P08913); experiment: Binding at cloned human α2a adrenergic receptor
# T4 sequence (P08913 1-465): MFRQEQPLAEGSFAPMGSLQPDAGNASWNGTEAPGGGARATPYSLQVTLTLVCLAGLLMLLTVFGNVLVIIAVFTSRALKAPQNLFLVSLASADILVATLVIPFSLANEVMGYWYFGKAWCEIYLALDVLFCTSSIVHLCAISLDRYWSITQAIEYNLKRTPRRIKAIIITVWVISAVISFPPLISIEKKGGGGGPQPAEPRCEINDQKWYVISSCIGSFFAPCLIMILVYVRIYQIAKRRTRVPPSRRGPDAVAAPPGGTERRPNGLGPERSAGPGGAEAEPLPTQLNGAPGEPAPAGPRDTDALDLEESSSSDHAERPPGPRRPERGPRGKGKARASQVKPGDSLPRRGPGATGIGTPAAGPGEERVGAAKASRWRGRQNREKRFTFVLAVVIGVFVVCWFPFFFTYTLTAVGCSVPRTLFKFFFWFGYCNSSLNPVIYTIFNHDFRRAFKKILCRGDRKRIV
# [5] = target: T5, α1d (Homo sapiens, UniProt P25100); experiment: Binding at cloned human α1d adrenergic receptor
# T5 sequence (P25100 1-572): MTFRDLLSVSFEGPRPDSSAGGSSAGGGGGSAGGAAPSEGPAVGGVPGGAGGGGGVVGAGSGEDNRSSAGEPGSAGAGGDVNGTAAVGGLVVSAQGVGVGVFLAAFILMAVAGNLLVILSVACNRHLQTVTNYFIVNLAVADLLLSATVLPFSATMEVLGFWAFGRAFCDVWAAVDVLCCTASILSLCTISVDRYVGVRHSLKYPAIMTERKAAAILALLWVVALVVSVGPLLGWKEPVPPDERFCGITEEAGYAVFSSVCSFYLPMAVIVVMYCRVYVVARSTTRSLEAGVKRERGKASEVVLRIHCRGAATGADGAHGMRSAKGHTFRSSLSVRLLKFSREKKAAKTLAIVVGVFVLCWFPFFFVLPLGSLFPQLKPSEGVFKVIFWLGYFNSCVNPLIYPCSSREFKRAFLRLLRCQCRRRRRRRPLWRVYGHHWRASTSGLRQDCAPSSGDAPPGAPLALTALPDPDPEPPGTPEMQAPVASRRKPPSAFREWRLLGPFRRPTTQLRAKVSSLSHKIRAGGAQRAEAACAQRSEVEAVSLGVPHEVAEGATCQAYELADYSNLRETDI
# [6] = target: T6, α2b (Homo sapiens, UniProt P18089); experiment: Binding at cloned human α2b adrenergic receptor
# T6 sequence (P18089 1-450): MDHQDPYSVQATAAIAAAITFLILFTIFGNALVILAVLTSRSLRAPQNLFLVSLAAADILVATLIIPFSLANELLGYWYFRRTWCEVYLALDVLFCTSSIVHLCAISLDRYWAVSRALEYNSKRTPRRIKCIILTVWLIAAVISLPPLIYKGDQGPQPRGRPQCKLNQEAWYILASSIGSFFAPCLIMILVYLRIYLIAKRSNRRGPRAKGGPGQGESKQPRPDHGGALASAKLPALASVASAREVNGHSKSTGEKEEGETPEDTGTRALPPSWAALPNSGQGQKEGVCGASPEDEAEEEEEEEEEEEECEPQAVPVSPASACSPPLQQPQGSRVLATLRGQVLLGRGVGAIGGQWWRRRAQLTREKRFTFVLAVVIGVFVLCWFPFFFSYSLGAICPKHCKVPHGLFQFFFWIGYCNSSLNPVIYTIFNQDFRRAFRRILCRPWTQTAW
# [7] = target: T7, 5HT1Dβ (Homo sapiens, UniProt P28222); experiment: Binding at cloned human 5HT1Dβ receptor
# T7 construct: expressed in transfected cells; host or cells: LM(tk-), line Ltk-11 (ATCC CRL 10422)
# T7 sequence (P28222 whole entry): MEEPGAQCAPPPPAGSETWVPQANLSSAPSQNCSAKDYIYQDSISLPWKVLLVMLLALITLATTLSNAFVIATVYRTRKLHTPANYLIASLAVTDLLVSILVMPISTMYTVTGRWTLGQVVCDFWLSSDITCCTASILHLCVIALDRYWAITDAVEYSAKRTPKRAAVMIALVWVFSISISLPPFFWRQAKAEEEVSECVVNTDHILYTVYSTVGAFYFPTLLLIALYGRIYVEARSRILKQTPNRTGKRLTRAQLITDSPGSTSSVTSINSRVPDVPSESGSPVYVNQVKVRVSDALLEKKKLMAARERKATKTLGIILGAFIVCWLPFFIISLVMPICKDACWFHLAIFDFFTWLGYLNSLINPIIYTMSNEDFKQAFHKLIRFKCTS
# Protocol: The cell line for the 5HT1Dα receptor, designated as Ltk-8-30-84, was deposited on Apr. […] The cell for the 5HT1Dβ receptor, designated as Ltk-11, was deposited on Apr. […] Membrane preparations comprising these receptors were prepared as described below, and suspended in 50 mM Tris-HCl buffer (pH 7.4 at 37° C.) containing 10 mM MgCl2, 0.2 mM EDTA, 10 μM pargyline, and 0.1% ascorbate. The binding of compounds was determined in competition binding assays by incubation for 30 minutes at 37° C. in the presence of 5 nM [^3H]serotonin. Nonspecific binding was determined in the presence of 10 μM serotonin.
# T3 sequence (P28223 whole entry): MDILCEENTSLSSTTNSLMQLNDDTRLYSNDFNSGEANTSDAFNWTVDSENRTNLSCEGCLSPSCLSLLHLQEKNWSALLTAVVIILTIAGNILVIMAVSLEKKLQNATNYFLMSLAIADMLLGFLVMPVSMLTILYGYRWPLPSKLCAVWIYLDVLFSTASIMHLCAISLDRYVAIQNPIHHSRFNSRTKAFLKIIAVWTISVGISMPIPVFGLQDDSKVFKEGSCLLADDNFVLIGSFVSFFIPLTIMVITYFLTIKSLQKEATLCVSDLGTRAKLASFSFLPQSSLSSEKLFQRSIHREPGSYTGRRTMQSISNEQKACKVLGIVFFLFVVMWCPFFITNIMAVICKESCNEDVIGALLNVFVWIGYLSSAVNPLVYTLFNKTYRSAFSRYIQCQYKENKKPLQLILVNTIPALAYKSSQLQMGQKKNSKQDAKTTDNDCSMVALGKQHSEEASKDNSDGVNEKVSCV
compound,measurement,setting,value
Cl.O=S(=O)(NC[C@H]1CC[C@H](CNCC2CCc3ccccc3C2)CC1)c1cccc2ccccc12 (mixture of isomers) [Compound 19],Ki,[1],3550 nM
same,Ki,[2],11 nM
same,pKi 5HT2,[3],6.55
same,pKi α2a,[4],6.74
same,pKi α1d,[5],6.90
same,pKi α2b,[6],6.58
Cl.O=[N+]([O-])c1ccccc1S(=O)(=O)NC[C@H]1CC[C@H](CNCC2CCc3ccccc3C2)CC1 (mixture of isomers) [Compound 20],Ki,[1],16000 nM
same,pKi 5HT1Dβ,[7],5.37
same,Ki,[2],8.3 nM
same,pKi 5HT2,[3],5.93
same,pKi α2a,[4],7.31
same,pKi α1d,[5],7.01
same,pKi α2b,[6],6.96
Cl.Cl.Nc1ccccc1S(=O)(=O)NC[C@H]1CC[C@H](CNCC2CCc3ccccc3C2)CC1 (mixture of isomers) [Compound 22],Ki,[1],17200 nM
same,pKi 5HT1Dβ,[7],5.41
same,Ki,[2],11 nM
same,pKi 5HT2,[3],5.99
same,pKi α2a,[4],7.05
same,pKi α1d,[5],6.80
same,pKi α2b,[6],6.43

# Source: patent US6713265B1 (Synaptic Pharmaceutical Corporation, priority 1999, dated 2004)
